Holding throughout (format): in vivo
Conditions in all cases: 312 h, evaluated after 13 days, 100=total damage to plant, 0=no damage to plant

The test system of experiment [1] is Alopecurus myosuroides (ALOMY). Briefly: Test Example B, post-emergence herbicidal test. The protocol:
(§1) Seeds of a variety of test species were sown in standard soil in pots. After cultivation for one day (pre-emergence) or after 8 days cultivation (post-emergence) under controlled conditions in a glasshouse (at 24/16° C., day/night; 14 hours light; 65% humidity), the plants were sprayed with an aqueous spray solution derived from the formulation of the technical active ingredient in acetone/water (50:50) solution containing 0.5% Tween 20 (polyoxyethelyene sorbitan monolaurate, CAS RN 9005-64-5). The test plants were then grown in a glasshouse under controlled conditions in a glasshouse (at 24/16° C., day/night; 14 hours light; 65% humidity) and watered twice daily. After 13 days for pre and post-emergence, the test was evaluated (100=total damage to plant; 0=no damage to plant). Test Plants: Setaria faberi (SETFA), Alopecurus myosuroides (ALOMY), Echinochloa crus-galli (ECHCG), and Avena fatua (AVEFA).

The subject of experiment [2] is Avena fatua (AVEFA). Briefly: Test Example B, post-emergence herbicidal test. The protocol:
as §1

For experiment [3], the system named is Echinochloa crus-galli (ECHCG). Briefly: Test Example B, post-emergence herbicidal test. On the procedure: as §1
The subject of experiment [4] is Alopecurus myosuroides (ALOMY). Briefly: Test Example B, pre-emergence herbicidal test. On the procedure:
as §1

In experiment [5] the test system is Avena fatua (AVEFA). Briefly: Test Example B, pre-emergence herbicidal test. The protocol: as §1
In experiment [6] the test system is Echinochloa crus-galli (ECHCG). Put plainly: Test Example B, pre-emergence herbicidal test. On the procedure:
as §1

Usually pest or weed control stands for the degree to which the test organism was suppressed or injured, in per cent. High values mean a strong effect, low ones a weak effect.

As to `CCc1ccc(-c2ccc(Cl)c(F)c2)cc1C1=C(O)[C@H]2[C@H]3CC[C@H](C3)[C@H]2C1=O` [Compound T35], the pest or weed control at 250 g/ha in experiment [1] was 90%; with Avena fatua (AVEFA) [2], 90%; in experiment [3], 90%; in experiment [4], 80%; with Avena fatua (AVEFA) [5], 70%; in experiment [6] it was 90%.
Take `CCc1ccc(-c2ccc(Cl)cc2Cl)cc1C1=C(O)[C@H]2[C@H]3CC[C@H](C3)[C@H]2C1=O` [Compound T29]: the pest or weed control at 250 g/ha in experiment [1] was 30%; with Avena fatua (AVEFA) [2], 0%; in experiment [3], 100%; in experiment [4] it was 30%; in the experiment with Avena fatua (AVEFA) [5] it was 90%; in experiment [6], 100%.
For the compound `CCc1ccc(-c2ccc(Cl)c(F)c2F)cc1C1=C(O)[C@H]2[C@H]3CC[C@H](CC3)[C@H]2C1=O` [Compound T44], the pest or weed control at 250 g/ha was determined as 90% in experiment [1]; 80% with Avena fatua (AVEFA) [2]; 100% in experiment [3]; 0% in experiment [4]; 20% in the experiment on Avena fatua (AVEFA) [5]; 70% in experiment [6].
With `CCc1ccc(-c2ccc(Cl)cc2)cc1C1=C(O)[C@@H]2[C@H](C1=O)[C@@H]1C=C[C@H]2CC1` (racemic) [Compound T6, rac-(3aR,4S,7R,7aS)-2-(4′-chloro-4-ethylbiphenyl-3-yl)-3a,4,7,7a-tetrahydro-4,7-ethanoindene-1,3-dione], the pest or weed control at 250 g/ha turned out to be 70% in experiment [1]; 60% in the experiment on Avena fatua (AVEFA) [2]; 100% in experiment [3]; 60% in experiment [4]; 40% in the experiment on Avena fatua (AVEFA) [5]; 100% in experiment [6].
As for `CCc1ccc(-c2ccc(Cl)c(C(F)(F)F)c2)cc1C1=C(O)[C@H]2[C@H]3CC[C@H](CC3)[C@H]2C1=O` [Compound T16], the pest or weed control at 250 g/ha is 0% in experiment [1]; 0% in the experiment on Avena fatua (AVEFA) [2]; 30% in experiment [3]; 60% in experiment [4]; 20% with Avena fatua (AVEFA) [5]; 100% in experiment [6].
Turning to `CCc1ccc(-c2ccc(Cl)c(Cl)c2)cc1C1=C(O)[C@H]2[C@H]3CC[C@H](CC3)[C@H]2C1=O` [Compound T13], the pest or weed control at 250 g/ha in experiment [1] was determined as 60%; in the experiment with Avena fatua (AVEFA) [2], 60%; in experiment [3], 100%; in experiment [4] it was 20%; with Avena fatua (AVEFA) [5], 0%; in experiment [6] it was 90%.
On to `CCc1ccc(-c2ccc(Cl)c(Cl)c2)cc1C1=C(O)[C@H]2[C@H]3CC[C@H](C3)[C@H]2C1=O` [Compound T31], for which the pest or weed control at 250 g/ha came out at 60% in experiment [1]; 70% with Avena fatua (AVEFA) [2]; 100% in experiment [3]; 20% in experiment [4]; 70% with Avena fatua (AVEFA) [5]; 80% in experiment [6].
In the case of `CCc1ccc(-c2ccc(Cl)c(F)c2Cl)cc1C1=C(O)[C@H]2[C@H]3CC[C@H](C3)[C@H]2C1=O` [Compound T39], the pest or weed control at 250 g/ha is 70% in experiment [1]; 50% in the experiment with Avena fatua (AVEFA) [2]; 100% in experiment [3]; 40% in experiment [4]; 70% in the experiment with Avena fatua (AVEFA) [5]; 100% in experiment [6].
Take `CCc1ccc(-c2ccc(Cl)cc2Cl)cc1C1=C(O)[C@H]2[C@H]3CC[C@H](CC3)[C@H]2C1=O` [Compound T11]: the pest or weed control at 250 g/ha in experiment [1] amounted to 90%; in the experiment on Avena fatua (AVEFA) [2] it was 100%; in experiment [3], 100%; in experiment [4] it was 0%; with Avena fatua (AVEFA) [5], 0%; in experiment [6] it was 60%.
For the compound `CCc1ccc(-c2cc(Cl)sc2Cl)cc1C1=C(O)[C@H]2[C@H]3CC[C@H](CC3)[C@H]2C1=O` [Compound T15], the pest or weed control at 250 g/ha in experiment [1] was determined as 40%; in the experiment with Avena fatua (AVEFA) [2] it was 30%; in experiment [3] it was 80%; in experiment [4] it was 0%; with Avena fatua (AVEFA) [5], 0%; in experiment [6], 30%.
In the case of `CCc1ccc(-c2ccc(Cl)c(C(F)(F)F)c2)cc1C1=C(O)[C@H]2[C@H]3CC[C@H](C3)[C@H]2C1=O` [Compound T33], the pest or weed control at 250 g/ha in experiment [1] worked out at 70%; with Avena fatua (AVEFA) [2] it was 70%; in experiment [3] it was 90%; in experiment [4], 20%; with Avena fatua (AVEFA) [5] it was 30%; in experiment [6] it was 100%.
For `CCc1ccc(-c2ccc(Cl)nc2Cl)cc1C1=C(O)[C@H]2[C@H]3CC[C@H](C3)[C@H]2C1=O` [Compound T37], the pest or weed control at 250 g/ha was 70% in experiment [1]; 0% with Avena fatua (AVEFA) [2]; 90% in experiment [3]; 50% in experiment [4]; 70% in the experiment on Avena fatua (AVEFA) [5]; 90% in experiment [6].
Turning to `CCc1ccc(-c2ccc(Cl)cc2C)cc1C1=C(O)[C@H]2[C@H]3CC[C@H](CC3)[C@H]2C1=O` [Compound T12], the pest or weed control at 250 g/ha stood at 90% in experiment [1]; 40% with Avena fatua (AVEFA) [2]; 100% in experiment [3]; 60% in experiment [4]; 20% in the experiment on Avena fatua (AVEFA) [5]; 100% in experiment [6].
As to `CCc1ccc(-c2ccc(Cl)cc2C)cc1C1=C(O)[C@H]2[C@H]3CC[C@H](C3)[C@H]2C1=O` [Compound T30], the pest or weed control at 250 g/ha in experiment [1] was 0%; with Avena fatua (AVEFA) [2] it was 0%; in experiment [3] it was 90%; in experiment [4] it was 40%; in the experiment with Avena fatua (AVEFA) [5], 30%; in experiment [6], 100%.
In the case of `Cc1ccc(-c2ccc(Cl)cc2)cc1C1=C(O)[C@H]2[C@H]3CC[C@H](CC3)[C@H]2C1=O` [Compound T4], the pest or weed control at 250 g/ha in experiment [1] was 70%; in the experiment with Avena fatua (AVEFA) [2], 80%; in experiment [3], 100%; in experiment [4], 50%; with Avena fatua (AVEFA) [5], 70%; in experiment [6] it was 100%.
As for `CCc1ccc(-c2ccc(Cl)c(F)c2)cc1C1=C(O)[C@H]2[C@H]3CC[C@H](CC3)[C@H]2C1=O` [Compound T18], the pest or weed control at 250 g/ha in experiment [1] amounted to 100%; in the experiment with Avena fatua (AVEFA) [2], 100%; in experiment [3], 100%; in experiment [4], 50%; in the experiment on Avena fatua (AVEFA) [5], 50%; in experiment [6], 90%.
As for `CCc1ccc(-c2ccc(F)cc2)cc1C1=C(O)[C@H]2[C@H]3CC[C@H](CC3)[C@H]2C1=O` [Compound T46], the pest or weed control at 250 g/ha was found to be 50% in experiment [1]; 30% in the experiment with Avena fatua (AVEFA) [2]; 100% in experiment [3]; 20% in experiment [4]; 0% in the experiment on Avena fatua (AVEFA) [5]; 80% in experiment [6].
`CCc1ccc(-c2ccc(Cl)c(Cl)c2F)cc1C1=C(O)[C@H]2[C@H]3CC[C@H](C3)[C@H]2C1=O` [Compound T41]: the pest or weed control at 250 g/ha in experiment [1] was found to be 0%; with Avena fatua (AVEFA) [2], 60%; in experiment [3], 90%; in experiment [4], 0%; in the experiment on Avena fatua (AVEFA) [5], 0%; in experiment [6], 50%.
With `CCc1ccc(-c2c(F)cc(Cl)cc2Cl)cc1C1=C(O)[C@H]2[C@H]3CC[C@H](C3)[C@H]2C1=O` [Compound T38], the pest or weed control at 250 g/ha turned out to be 30% in experiment [1]; 40% in the experiment on Avena fatua (AVEFA) [2]; 90% in experiment [3]; 0% in experiment [4]; 0% in the experiment on Avena fatua (AVEFA) [5]; 80% in experiment [6].
Consider `CCc1ccc(-c2ccc(Cl)c(OC)c2)cc1C1=C(O)[C@H]2[C@H]3CC[C@H](CC3)[C@H]2C1=O` [Compound T14], for which the pest or weed control at 250 g/ha in experiment [1] came out at 0%; with Avena fatua (AVEFA) [2], 0%; in experiment [3] it was 90%; in experiment [4], 80%; with Avena fatua (AVEFA) [5], 70%; in experiment [6] it was 100%.

For the origin of these results see patent publication US20120065066A1, “NOVEL HERBICIDES” (SYNGENTA CROP PROTECTION LLC, priority 2009, published 2012).
